Assay results as given in US11591342B2, “Heterocyclic compound, application thereof and pharmaceutical composition comprising same” (SUZHOU SINOVENT PHARMACEUTICALS CO., LTD., priority 2018, dated 2023).

What was measured:
Autotaxin (ATX) = Autotaxin (ATX) (Homo sapiens (Human), UniProt Q13822); experiment: ATX bioactivity assay (Amplex Red / choline oxidase / HRP fluorescence, LPC 16:0 substrate); format: biochemical; conditions: 30 min room temperature
Procedure: Effect Example 1 Bioactivity Assay
Preparation and Treatment
Stock Solution Preparation
A 10 mM DMSO stock solution was formulated for each compound. A 30 mM DMSO stock solution was formulated for positive control HA130.
The DMSO stock solutions were stored at room temperature in a desiccator for a short period of time or at −20° C. for a long period of time.
All compounds were serially 3-fold diluted in DMSO from 10 μM to the 10th concentration.
A 1000× positive control (10 mM, HA130) and a 1000× negative control (100% DMSO) were prepared.
The plates were shaken for 5 min.
Preparation of 1× Reaction Buffer:
5× reaction buffer and cold water were mixed well in a volume ratio of 1:4.
Preparation of 20 U/mL Choline Oxidase Stock Solution:
1 tube of choline oxide in a kit was dissolved in 1× reaction buffer. The aliquots were frozen at −20° C.
Preparation of 200 U/mL Horseradish Peroxidase (HRP) Stock Solution:
1 tube of HRP in a kit was dissolved in 1 mL of 1× reaction buffer. The aliquots were frozen at −20° C.
Preparation of 20 mM Amplex® Red Reagent (for Detection) Stock Solution
Amplex Red reagent and DMSO were equilibrated at room temperature. 1 tube of Amplex Red reagent in a kit was dissolved in 200 μL of DMSO.
a) 2×ATX ([…]), 2×HRP ([…]), 2× choline oxidase (0.2 U/mL) were added to 1× reaction buffer.
b) 20 μL of the reaction mixture was added to the plate (PE, 6007270) (refer to step a).
c) 40 nL of diluent was added to the plate using Echo (refer to “Preparation”).
d) 2×LPC (16:0) (60 mM) and 2× Amplex® Red ([…]) were prepared using 1× reaction buffer.
e) 20 μL of the mixture was added to the plate (refer to step d).
f) The plate was shaken for 30 s and allowed to stand at room temperature for 30 min.
g) The plate was examined using Envision, and the procedure was as follows: Excitation at 530 nm; and Emission at 590 nm.
Formula for Calculating % Inhibition (Percent Inhibition Rate) as Follows:
FLU: Fluorescence (fluorescence reading)
FLUpositive: Average fluorescence value in positive control wells (10 μM HA130) in the plate.
FLUvehicle: Average fluorescence value in negative control wells (0.1% DMSO) in the plate.
Calculation of IC50 and Dose-Response Curve:
IC50 of the compounds was calculated via a non-linear regression line (dose-variable slope) fitted using % inhibition and log of compound concentration. The software used was Graphpad 5.0. Y=Bottom+(Top−Bottom)/(1+10^((Log IC50−X)×Hill Slope))
X: log of inhibitor concentration

LPA18:2 in mouse plasma = experiment: Inhibition of LPA in mouse plasma (plasma LPA18:2 assay, LC-MS/MS); format: biochemical, CD1 mice; conditions: fresh CD1 mouse plasma, LPA18:2, 37° C. for 120 min
Procedure: Effect Example 2. Inhibition of LPA in Mouse Plasma by Compounds
20 mM stock solutions of the compounds were prepared with DMSO and then diluted to 1 mM, which was subjected to a serial 3-fold dilution to yield 10 working solutions.
Collection of Fresh Mouse Plasma:
CD1 mice were euthanized by CO2 inhalation. Approximately 1 mL of whole blood was taken by cardiac puncture, with EDTA-K2 for anticoagulation. The blood was centrifuged at 3220 g for 10 min at 4° C. for plasma collection.
Reactions were performed in a 96-well plate, and the samples were tested in duplicate. 1 μL of each working solution was added to 100 μL of plasma, with the final concentrations of […]. 1 μL of DMSO was added to plasma to serve as blank. The samples were incubated in a water bath at 37° C. for 120 min, and 600 μL of 10 μM tolbutamide in methanol was added to terminate the reaction. Tolbutamide also served as an internal standard. After 5 min of vortex mixing, the samples were centrifuged at 3220 g for 45 min at 4° C. to precipitate the protein. 100 μL of the supernatant was transferred to a new plate, diluted with water based on LC-MS response and peak shapes, mixed well and analyzed by LC-MS/MS.
LPA18:2 was quantified using peak area ratio (LPA18:2/internal standard), requiring no standard curve. For test compounds of different concentrations, LPA data was represented by a percentage decrease of LPA: 100-[((LPA peak area ratio of compound)/(LPA peak area ratio of control))×100]. IC50 was calculated using Graphpad Prism 6.0 software.

CYP3A4 = CYP3A4 (Homo sapiens (Human), UniProt P08684); experiment: Time-dependent inhibition of CYP3A4 (TDI assay, human liver microsomes); format: in vitro ADME; conditions: for CYP3A4 TDI % @ 10 μM: human liver microsomes, Midazolam substrate, 30 min with NADPH vs 0 min
CYP3A4, sequence (P08684 whole entry): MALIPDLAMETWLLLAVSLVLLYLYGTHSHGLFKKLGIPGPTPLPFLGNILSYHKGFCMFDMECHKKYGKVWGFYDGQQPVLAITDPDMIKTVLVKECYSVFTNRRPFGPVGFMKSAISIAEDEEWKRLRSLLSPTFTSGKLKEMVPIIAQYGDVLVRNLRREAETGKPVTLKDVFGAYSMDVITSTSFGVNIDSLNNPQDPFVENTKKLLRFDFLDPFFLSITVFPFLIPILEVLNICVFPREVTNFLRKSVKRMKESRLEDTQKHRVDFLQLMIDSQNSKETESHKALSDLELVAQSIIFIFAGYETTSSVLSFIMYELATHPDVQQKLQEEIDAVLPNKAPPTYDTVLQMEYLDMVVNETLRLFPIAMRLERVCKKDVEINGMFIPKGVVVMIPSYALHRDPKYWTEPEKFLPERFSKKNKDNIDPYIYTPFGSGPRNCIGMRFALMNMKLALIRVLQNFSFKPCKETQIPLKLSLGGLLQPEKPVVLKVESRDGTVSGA
Procedure: Effect Example 3. Time-Dependent Inhibition of CYP3A4
1. Preheating potassium phosphate buffer (K-buffer), pH 7.4: 100 mM potassium phosphate buffer (K-buffer) was prepared by mixing 9.5 mL of solution A with 40.5 mL of solution B, diluting to 500 mL with ultrapure water, and then adjusting to pH 7.4 with KOH or H3PO4, wherein the solution A (1M potassium dihydrogenphosphate) was prepared by dissolving 136.5 g of potassium dihydrogenphosphate in […] of ultrapure water.
2. Preparation of human liver microsome suspension (1.3 mg/mL, 1.3×, stock: 20 mg/mL): 100 μL of human liver microsome suspension (20 mg/mL) was added into […] of K-buffer.
3. Preparation of NADPH solution (4.167 mg/mL, 5 mM): 8.3 mg of NADPH was added into 2 mL of buffer.
4. Preparation of substrate solution (1.5× final): 1.5 μL of 10 mM Midazolam was added to 998.5 μL of K-buffer to yield the substrate mixture.
5. Preparation of 100× test compound, reference and blank control solutions: 3 μL of 10 mM stock solution of test compound was added to 27 μL of ACN; 3 μL of positive control stock solution was added to 27 μL of ACN; and 3 μL of DMSO was added to 27 μL of ACN to serve as blank control.
6. Primary preheating system: An NADPH-free system for 0 min incubation: 78 μL of 1.3× human liver microsome solution (step 2) was mixed with 1 μL of the 100× stock solutions of positive control, test compound, or blank control (step 5); A system containing NADPH for 30 min incubation: 78 μL of 1.3× human liver microsome solution (step 2) was mixed with 1 μL of the 100× stock solutions of positive control, test compound, or blank control (step 5).
7. Secondary preheating system: 150 μL of the substrate solution prepared in step 4 was added into a deep well plate together with the NADPH solution from step 3
8. The samples were preheated for 10 min in a 37° C. water bath.
9. Reaction procedure: (1) reaction for 0 min: 21 μL of K-buffer was added to the primary preheating system and mixed well without incubation; 20 μL of the mixture was immediately transferred into the plate of the secondary preheating system; after mixing, the secondary system was incubated in a 37° C. water bath for 15 min, and 60 μL of the reaction mixture was added into 120 μL of acetonitrile containing internal standard to terminate the reaction; and (2) reaction for 30 min: 21 μL of NADPH was added into the primary preheating system for a 30-min incubation after mixing; 20 μL of the mixture was added into the secondary preheating system prior to mixing; the mixture was incubated in a 37° C. water bath for 15 min, and 60 μL of the reaction mixture was added into 120 μL of acetonitrile containing internal standard to terminate the reaction.
10. After termination, the samples were shaken on a shaker at 600 rpm for 10 min and centrifuged at 5594 g for 15 min prior to LC-MS/MS analysis.

Compound | IC50 (Autotaxin (ATX)) [nM] | IC50 (LPA18:2 in mouse plasma) [nM] | CYP3A4 TDI % @ 10 μM (CYP3A4) [%] | time-dependent inhibition on CYP3A4 (conclusion) (CYP3A4; conclusion drawn from Table 3, 10 μM)
CCn1nc2c(F)cc(N3CCN(CC(=O)N4CC(O)C4)CC3C(F)(F)F)cc2c1N(C)c1nc(-c2ccc(F)cc2)c(C#N)s1 (single isomer, unassigned) [Compound S-0131A, 2-((2-ethyl-7-fluoro-5-(4-(2-(3-hydroxyazetidin-1-yl)-2-oxoethyl)-2-(trifluoromethyl)piperazin-1-yl)-2H-indazol-3-yl)(methyl)amino)-4-(4-fluorophenyl)thiazole-5-carbonitrile] | 47 | 236 | – | –
CCn1nc2c(F)cc(N3CCN(CC(=O)N4CC(O)C4)CC3C(F)(F)F)cc2c1N(C)c1nc(-c2ccc(F)cc2)c(C#N)s1 (single isomer, unassigned) [Compound S-0131B, 2-((2-ethyl-7-fluoro-5-(4-(2-(3-hydroxyazetidin-1-yl)-2-oxoethyl)-2-(trifluoromethyl)piperazin-1-yl)-2H-indazol-3-yl) (methyl)amino)-4-(4-fluorophenyl)thiazole-5-carbonitrile] | 36 | 91 | – | –
CCN(c1nc(-c2ccc(F)cc2)c(C#N)s1)c1c2cc(N3CCN(CC(=O)N4CC(O)C4)CC3C(F)(F)F)cc(F)c2nn1CC (single isomer, unassigned) [Compound S-0134A, 2-(ethyl(2-ethyl-7-fluoro-5-(4-(2-(3-hydroxyazetidin-1-yl)-2-oxoethyl)-2-(trifluoromethyl)piperazin-1-yl)-2H-indazol-3-yl)amino)-4-(4-fluorophenyl)thiazole-5-carbonitrile] | 20 | 116 | – | –
CCN(c1nc(-c2ccc(F)cc2)c(C#N)s1)c1c2cc(N3CCN(CC(=O)N4CC(O)C4)CC3C(F)(F)F)cc(F)c2nn1CC (single isomer, unassigned) [Compound S-0134B, 2-(ethyl (2-ethyl-7-fluoro-5-(4-(2-(3-hydroxyazetidin-1-yl)-2-oxoethyl)-2-(trifluoromethyl)piperazin-1-yl)-2H-indazol-3-yl)amino)-4-(4-fluorophenyl)thiazole-5-carbonitrile] | 11 | 98 | 41.82 | weak time-dependent inhibition on CYP3A4
CCc1nc2ncc(N3CCN(CC(=O)N4CC(O)C4)CC3)cn2c1N(CC)c1nc(-c2ccc(F)cc2)c(C#N)s1 [Compound S-0058, 2-(ethyl(2-ethyl-6-(4-(2-(3-hydroxyazetidin-1-yl)-2-oxoethyl)piperazin-1-yl)imidazo[1,2-a]pyrimidin-3-yl)amino)-4-(4-fluorophenyl)thiazole-5-carbonitrile] | 40 | 373 | – | –
CCN(c1nc(-c2ccc(F)cc2)c(C#N)s1)c1c2cc(N3CCN(CC(=O)N4CC(O)C4)[C@H](C(F)(F)F)C3)cc(F)c2nn1CC [Compound S-0135A, (S)-2-(ethyl(2-ethyl-7-fluoro-5-(4-(2-(3-hydroxyazetidin-1-yl)-2-oxoethyl)-3-(trifluoromethyl)piperazin-1-yl)-2H-indazol-3-yl)amino)-4-(4-fluorophenyl)thiazole-5-carbonitrile] | 132 | 442 | – | –
CCn1nc2c(C)cc(N3CCN(CC(=O)N4CC(O)C4)CC3)nc2c1N(CC(F)F)c1nc(-c2ccc(F)cc2)c(C#N)s1 [Compound S-0141, 2-((2,2-difluoroethyl)(2-ethyl-5-(4-(2-(3-hydroxyazetidin-1-yl)-2-oxoethyl)piperazin-1-yl)-7-methyl-2H-pyrazolo[4,3-b]pyridin-3-yl)amino)-4-(4-fluorophenyl)thiazole-5-carbonitrile] | 43 | 153 | – | –
CCn1nc2c(C)cc(N3CCN(CC(=O)N4CC(O)C4)CC3)nc2c1N(CCF)c1nc(-c2ccc(F)cc2)c(C#N)s1 [Compound S-0144, 2-((2-ethyl-5-(4-(2-(3-hydroxyazetidin-1-yl)-2-oxoethyl)piperazin-1-yl)-7-methyl-2H-pyrazolo[4,3-b]pyridin-3-yl)(2-fluoroethyl)amino)-4-(4-fluorophenyl)thiazole-5-carbonitrile] | 27 | 67 | – | –
CCN(c1nc(-c2ccc(F)cc2)cs1)c1c2cc(N3CCN(CC(=O)N4CC(O)C4)CC3)cc(F)c2nn1CC [Compound S-0149, 2-(4-(2-ethyl-3-(ethyl(4-(4-fluorophenyl)thiazol-2-yl)amino)-7-fluoro-2H-indazol-5-yl)piperazin-1-yl)-1-(3-hydroxyazetidin-1-yl)ethanone] | – | 160 | – | –
CCN(c1nc(-c2ccc(F)cc2)cs1)c1c2nc(N3CCN(CC(=O)N4CC(O)C4)CC3)cc(C)c2nn1CC [Compound S-0151, 2-(4-(2-ethyl-3-(ethyl(4-(4-fluorophenyl)thiazol-2-yl)amino)-7-methyl-2H-pyrazolo[4,3-b]pyridin-5-yl)piperazin-1-yl)-1-(3-hydroxyazetidin-1-yl) ethanone] | – | 1400 | – | –
CCc1nc2c(C)cc(N3CCN(CC(=O)N4CC(O)C4)CC3)cn2c1N(C)c1nc(-c2ccc(F)cc2)c(C#N)s1 [GLPG1690, reference compound] | – | 1060 | 21.57 | –
